{"source": "patent US20200345725A1", "about": "“Methods and Compositions for Treating Cancer” (Omeros Corporation, priority 2019, published 2020)", "assay_type_in_all_cases": "cell-based", "key": {"GPR174 [1]": {"target": "T1, GPR174 (Homo sapiens, UniProt Q9BXC1)", "assay": "GPR174 signaling assays with adenosine receptor inhibitors (data not shown)", "parameters": "host or cells: HEK293 or CHO cell lines (ATCC)", "description": "It should be noted that the A2aR inhibitors tested belong to four distinct chemical classes and that none of them affects GPR174 signaling when tested in signaling assays (data not shown)."}, "purified human T cells": {"system": "purified human T cells", "assay": "Suppression of cytokine production from purified human T cells by PS liposomes and NECA (MesoScale Discovery)", "details": "purified human CD3+ T cells, 24 hours, PS liposomes 1 μM, NECA", "procedure": "Purified human T cells (untouched total T cells, Astarte Biologies, Inc., CD3+ T cells in FIGS. 72A and 72B and CD8+ T cells in FIG. 72C) were stimulated in quadruplicate at 100,000 cells per well in 96-well flat bottom plates and X-vivo 15 media with the following reagents:\nImmunoCult™ Human CD3/CD28 T Cell Activator (StemCell) (1:50 dilution)\nPS liposomes (1 μM) or media control\nAdenosine receptor agonist (NECA, 0.1 μM or 0.05 μM) or media control\nA combination of both reagents.\nAfter 24 hours of culture (44 hours for the results shown in FIG. 72C), culture media was analyzed for cytokines (MesoScale Discovery)."}, "A2bR": {"target": "T2, A2bR (Homo sapiens, UniProt P29275)", "T2 construct": "host or cells: HEK293", "T2 sequence (P29275 1-332)": "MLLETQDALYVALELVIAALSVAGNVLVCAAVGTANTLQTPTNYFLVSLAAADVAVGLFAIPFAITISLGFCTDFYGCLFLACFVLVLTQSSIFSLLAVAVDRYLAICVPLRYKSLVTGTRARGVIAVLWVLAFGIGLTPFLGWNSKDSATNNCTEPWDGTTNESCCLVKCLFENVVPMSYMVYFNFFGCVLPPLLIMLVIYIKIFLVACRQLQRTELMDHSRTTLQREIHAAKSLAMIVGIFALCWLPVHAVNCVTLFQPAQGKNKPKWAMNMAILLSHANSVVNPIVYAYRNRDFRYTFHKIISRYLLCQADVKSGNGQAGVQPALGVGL", "assay": "Cre-luciferase reporter assay, HEK293 cells transfected with A2bR", "details": "overnight incubation; read-out: A2B (IC50 nM)"}, "GPR174 [2]": {"target": "T1, GPR174", "assay": "Cellular redistribution assay (CRA) for GPR174", "description": "One method for identifying compounds capable of modulating a receptor is using a cellular redistribution assay (“CRA”). Exemplary CRA methods are found in U.S. Pat. No. 7,309,576 issued to O'Dowd et al. and in O'Dowd et al., J. Biomol. Screen. 12:175-85,2007. […] Incorporation of the NLS alters the cellular localization of the GPCR, such that the majority of the NLS-modified receptor is present in the cell interior. An NLS-modified GPCR, when interacting with a functionally active compound, is mostly localized on the cell surface. Thus, it becomes possible to identify receptor modulators without knowledge of the endogenous ligand or a surrogate ligand.\nThe inventors have identified a number of compounds that inhibit GPR174 using a CRA assay similar to that described in U.S. Pat. No. 7,309,576 and in O'Dowd et al., J. Biomol. Screen. 12:175-85, 2007. These compounds are described in detail below.\n(§1) The inventors used a CRA similar to that described in U.S. Pat. No. 7,309,576 and O'Dowd et al., J. Biomol. Screen. 12:175-85, 2007 to identify compounds that are capable of interacting with GPR174 using a library of approximately 370,000 chemical entities. Briefly described, the CRA assay described in U.S. Pat. No. 7,309,576 involves artificially inserting a NLS into the dopamine D1 receptor (DRD1), which allows the receptor to traffic from the cell membrane to the cell interior, and that the binding of antagonists to the receptor retained the receptor at the cell surface, while removal of the ligand allowed the receptor to continue to internalize from the cell surface. Both antagonists and agonists that selectively bound the receptor retained the receptor on the plasma membrane. GPR174 constructs were generated for use in a CRA-based compound screening assay. From this screen, the inventors initially identified compounds of formula I-VI, as described herein and included in Table 1."}, "CHRM1": {"system": "CHRM1", "assay": "CRA against CHRM1", "description": "as §1\nThe inventors also sought to validate that the compounds identified using the CRA are modulatory compounds. To this end, the above-described CRA was used to screen a library for compounds that interact with three control non-orphan receptors, and the results of this screen were compared to the results of screening the same library for compound that were identified using a Fluorometric Imaging Plate Reader (FLIPR) assay, a conventional technique commonly used to identify compounds interacting with non-orphan GPCRs signaling through Ca^++. Three non-orphan GPCRs—Muscarinic acetylcholine receptor M1 (CHRM1), Adrenergic receptor alpha 1a (ADRA1a), and Neuropeptide S receptor (NPSR)—were screened against a 10,000-compound GPCR-focused library. Thirty interacting compound “hits” were identified using the CRA, and eighty-one hits were identified using the FLIPR for the CHRM1 receptor; 9 CRA hits and 29 FLIPR hits for the NPS receptor were identified; and 110 CRA hits and 110 FLIPR hits for ADRA1a.\nIn addition, the CRA can also provide the relative potencies of compounds against the target receptor."}, "ADBR2 [3]": {"target": "T3, ADBR2 (Homo sapiens, UniProt P07550)", "T3 construct": "host or cells: HEK293 or CHO cell lines (ATCC)", "assay": "CRE-Luc reporter assay with control receptor ADBR2", "procedure": "The DNA/lipofectamine 2000 mix (3000 μL) was incubated at room temperature for 30 minutes and then added into a 10 cm culture dish (Corning, NY) containing 70-90% confluent cultured cells, (HEK293 or CHO cell lines (ATCC, VA)), in 15 mL of media. […] The cells were further incubated at 37° C. for various times. The media were removed and the cells lysed.\nCompounds were tested in the reporter system with increasing concentrations of GPR174-interacting compounds.\nThe DNA/lipofectamine 2000 mix (3000 μL) was incubated at room temperature for 30 minutes and then added into a 10 cm culture dish (Corning, NY) containing 70-90% confluent cultured cells, typically HEK293 or CHO cell lines (ATCC, VA), in 15 mL of media. […] Media (26 mL) were added to the detached cells and 120 μL of transfected cells were transferred to each well on a 96-well plate. Increasing concentration of each compound in DMSO (1.2 μl) was added to the cells after plating into the 96-well plate. The cells were further incubated at 37° C. for various times. The media were removed, and the cells lysed.\nADBR2 is a GPCR, like GPR174, that activates the Gs signaling pathway."}, "GPR174 [4]": {"target": "T1, GPR174", "assay": "GloSensor cAMP assay with GPR174, with or without agonist LysoPS", "parameters": "host or cells: HEK293 or CHO cell lines (ATCC)", "procedure": "In order to confirm that GPR174 interacting compound 4 is an antagonist of GPR174-mediated Gs signaling, a GloSensor assay was carried out with increasing concentrations of compound 4 in the presence or absence of a fixed concentration (1 μM) of the GPR174 agonist LysoPS as follows.\nThe DNA/lipofectamine 2000 mix (3000 μL) was incubated at room temperature for 30 minutes and then added into a 10 cm culture dish (Corning, NY) containing 70-90% confluent cultured cells, typically HEK293 or CHO cell lines (ATCC, VA), in 15 mL of media. […] Media (26 mL) was added to the detached cells and 100 μL of transfected cells were transferred to each well on a 96-well plate. The cells were further incubated at 37° C. overnight. The following day, the media were removed and 100 μl of equilibration media (Promega) was added to each well to the manufacturer's directions. The cells were then incubated at room temperature for 2 hours and the cell plates were pre-read with a SpectraMax L (Molecular Devices, CA). After the pre-read, increasing concentrations of each compound in DMSO (1.0 μl) was added to the cells. The cell plates containing the compound were read immediately after the compound was added and at various times up to 30 minutes after the addition of the compound with a SpectraMax L (Molecular Devices, CA). Data were analyzed with either Excel (Microsoft, WA) or Prism 4.03 (GraphPad, CA)."}, "ADBR2 [5]": {"target": "T3, ADBR2", "assay": "GloSensor cAMP assay with ADBR2"}, "GPR174 [6]": {"target": "T1, GPR174", "assay": "CRE-Luc reporter Gs signaling assay with GPR174", "parameters": "host or cells: HEK293 or CHO cell lines (ATCC)", "details": "for Human GPR174 CRE Activity: nature of the compound (IA, antagonist, NM): pCRE-Luc reporter"}, "wild-type GPR174": {"target": "T4, wild-type GPR174 (Homo sapiens, UniProt Q9BXC1)", "T4 construct": "expressed in transfected cells; host or cells: HEK293", "T4 sequence (Q9BXC1 whole entry)": "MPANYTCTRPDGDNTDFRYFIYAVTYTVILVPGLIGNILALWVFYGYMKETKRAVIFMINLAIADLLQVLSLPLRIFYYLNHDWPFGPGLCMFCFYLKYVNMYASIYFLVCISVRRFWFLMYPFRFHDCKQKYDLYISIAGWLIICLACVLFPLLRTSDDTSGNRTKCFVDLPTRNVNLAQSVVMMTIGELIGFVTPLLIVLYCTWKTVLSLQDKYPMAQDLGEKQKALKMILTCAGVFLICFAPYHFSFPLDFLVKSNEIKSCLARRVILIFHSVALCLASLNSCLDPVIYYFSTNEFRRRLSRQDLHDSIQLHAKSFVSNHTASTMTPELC", "assay": "GloSensor Gs signaling by phospholipids, HEK293 cells expressing wild-type GPR174", "details": "10 nM to 10,000 nM", "procedure": "(§2) Unilamellar liposomes of phosphatidylserine (PS) and other phospholipids were prepared by hydration in PBS and extrusion at 50-54° C. through a 0.1 micron filter using a mini-extruder (Avanti). Lysophosphatidylserine (Lyso-PS) is soluble.\n(§3) HEK293 cells were grown in 6-well plates and transfected using Lipofectamine 2000 (Thermo Fisher Scientific) with 300 ng/well of cAMP biosensor expressing plasmid pGlo22F (Promega) and 2 ng of a plasmid expressing wild-type GPR174 or 2 ng of a plasmid expressing a GPR174 mutant with lowered basal activity, referred to as “GPR174-v38.”\n5-6 hours after transfection, the cells were trypsinized and plated at a density of 5000 cells/well into 96-well plates and incubated overnight. The next day, the culture medium was replaced with 100 μL/well of serum free medium X-vivo15 (Lonza) with 2% GloSensor Assay reagent (Promega). The plates were incubated for 1 hour at room temperature and measured in a luminometer to obtain the pre-compound values. […] The plates were measured in a luminometer to obtain the post-compound addition measurement. The ratio of post-compound addition to pre-compound addition measurements (i.e., the extent of Glosensor signal induction by an agonist) was determined. […]"}, "GPR174-v38": {"target": "GPR174-v38 (Homo sapiens, UniProt Q9BXC1)", "assay": "GloSensor Gs signaling by phospholipids, HEK293 cells expressing mutant GPR174-v38", "details": "10 nM to 10,000 nM", "procedure": "as §2, §3\n5-6 hours after transfection, the cells were trypsinized and plated at a density of 5000 cells/well into 96-well plates and incubated overnight. The next day, the culture medium was replaced with 100 μL/well of serum free medium X-vivo15 (Lonza) with 2% GloSensor Assay reagent (Promega). The plates were incubated for 1 hour at room temperature and measured in a luminometer to obtain the pre-compound values. […] The plates were measured in a luminometer to obtain the post-compound addition measurement. The ratio of post-compound addition to pre-compound addition measurements (i.e., the extent of Glosensor signal induction by an agonist) was determined."}}, "data": [{"compound": "CCCn1c(=O)c2[nH]c(-c3ccc(OCC(=O)Nc4ccc(C#N)cc4)cc3)nc2n(CCC)c1=O", "note": "[MRS-1754]", "values": [{"measurement": "effect on GPR174 signaling", "setting": "GPR174 [1]", "value": "did not affect GPR174 signaling"}]}, {"compound": "CCNC(=O)[C@H]1O[C@@H](n2cnc3c(N)ncnc32)[C@H](O)[C@@H]1O", "note": "[NECA]", "values": [{"measurement": "IL-2 FC vs Media", "setting": "purified human T cells; FIG. 72A", "value": 0.42, "unit": "fold change"}, {"measurement": "IFN-γ FC vs Media", "setting": "purified human T cells; FIG. 72B", "value": 0.31, "unit": "fold change"}]}, {"compound": "Nc1nc(-n2cccn2)nc(-n2cccn2)c1Br", "note": "[PBF-509]", "values": [{"measurement": "IC50", "setting": "A2bR", "value": 680, "unit": "nM"}]}, {"compound": "CCCC(=O)c1ccc(N2CCN(S(=O)(=O)c3ccc(C)cc3)CC2)c(F)c1", "note": "[compound 4]", "values": [{"measurement": "dose-response curve against GPR174 in the CRA (FIG. 5A)", "setting": "GPR174 [2]", "value": "show a dose-response curve"}, {"measurement": "activity against CHRM1 in the CRA (FIG. 5B)", "setting": "CHRM1", "value": "do not show any activity"}, {"measurement": "Gs pathway in the presence of ADBR2 (CRE-Luc reporter)", "setting": "ADBR2 [3]", "value": "did not modulate"}, {"measurement": "competition with the GPR174 agonist LysoPS (GloSensor, FIG. 21A)", "setting": "GPR174 [4]; LysoPS fixed at 1 μM", "value": "does compete"}, {"measurement": "Gs pathway in the presence of GPR174 (GloSensor, FIG. 21A)", "setting": "GPR174 [4]; compound alone", "value": "does not modulate"}, {"measurement": "Gs signaling in the presence of ADBR (GloSensor, FIG. 21B)", "setting": "ADBR2 [5]", "value": "neither compound 4 nor LysoPS modulate Gs signaling"}, {"measurement": "Gs pathway in the presence of GPR174 (CRE-Luc reporter)", "setting": "GPR174 [6]; increasing concentrations of compound", "value": "did not modulate"}, {"measurement": "Human GPR174 CRE Activity: nature of the compound (IA, antagonist, NM)", "setting": "GPR174 [6]", "value": "GPR174 antagonist"}, {"measurement": "Human GPR174 CRE Activity: nature of the compound (IA, antagonist, NM)", "setting": "GPR174 [6]; listed as Compound 4", "value": "GPR174 antagonist"}]}, {"compound": "lysophosphatidylserine [LysoPS]", "values": [{"measurement": "GPR174 Gs signaling, wild-type GPR174 (FIG. 45A)", "setting": "wild-type GPR174", "value": "stimulate GPR174 Gs signaling in a concentration-dependent manner"}, {"measurement": "Gs signaling in the presence of ADBR (GloSensor, FIG. 21B)", "setting": "ADBR2 [5]", "value": "neither compound 4 nor LysoPS modulate Gs signaling"}, {"measurement": "GPR174 Gs signaling, mutant GPR174-v38 (FIG. 45B)", "setting": "GPR174-v38", "value": "stimulate GPR174 Gs signaling in a concentration-dependent manner"}]}]}
